From PubChem BioAssay (NCI)
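All cell lines were grown in 96-well plates and treated with compound for 48 hours. TGI marks complete inhibition of growth.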

How the values were obtained:
Experiment in all cases: NCI-60 cell line screen, 48 h
786-0 renal = tested on: 786-0 renal
A498 renal = tested on: A498 renal
A549 NSCLC = tested on: A549 NSCLC
ACHN renal = tested on: ACHN renal
CAKI-1 renal = tested on: CAKI-1 renal
CCRF-CEM leukemia = tested on: CCRF-CEM leukemia
COLO 205 colon = tested on: COLO 205 colon
DU-145 prostate = tested on: DU-145 prostate
EKVX NSCLC = tested on: EKVX NSCLC
HCC-2998 colon = tested on: HCC-2998 colon
HCT-116 colon = tested on: HCT-116 colon
HCT-15 colon = tested on: HCT-15 colon
HL-60(TB) leukemia = tested on: HL-60(TB) leukemia
HOP-62 NSCLC = tested on: HOP-62 NSCLC
HOP-92 NSCLC = tested on: HOP-92 NSCLC
HT29 colon = tested on: HT29 colon
K-562 leukemia = tested on: K-562 leukemia
KM12 colon = tested on: KM12 colon
LOX IMVI melanoma = tested on: LOX IMVI melanoma
M14 melanoma = tested on: M14 melanoma
MCF7 breast = tested on: MCF7 breast
MDA-MB-231 breast = tested on: MDA-MB-231 breast
MDA-MB-435 = tested on: MDA-MB-435
MDA-N = tested on: MDA-N
MOLT-4 leukemia = tested on: MOLT-4 leukemia
NCI-H226 lung = tested on: NCI-H226 lung
NCI-H23 lung = tested on: NCI-H23 lung
NCI-H460 lung = tested on: NCI-H460 lung
NCI/ADR-RES ovarian = tested on: NCI/ADR-RES ovarian
OVCAR-3 ovarian = tested on: OVCAR-3 ovarian
OVCAR-4 ovarian = tested on: OVCAR-4 ovarian
OVCAR-5 ovarian = tested on: OVCAR-5 ovarian
OVCAR-8 ovarian = tested on: OVCAR-8 ovarian
PC-3 prostate = tested on: PC-3 prostate
RPMI-8226 leukemia = tested on: RPMI-8226 leukemia
RXF 393 renal = tested on: RXF 393 renal
SF-268 CNS = tested on: SF-268 CNS
SF-295 CNS = tested on: SF-295 CNS
SF-539 CNS = tested on: SF-539 CNS
SK-MEL-28 melanoma = tested on: SK-MEL-28 melanoma
SK-MEL-5 melanoma = tested on: SK-MEL-5 melanoma
SK-OV-3 ovarian = tested on: SK-OV-3 ovarian
SN12C renal = tested on: SN12C renal
SNB-19 CNS = tested on: SNB-19 CNS
SNB-75 CNS = tested on: SNB-75 CNS
SW-620 colon = tested on: SW-620 colon
T-47D breast = tested on: T-47D breast
TK-10 renal = tested on: TK-10 renal
U251 CNS = tested on: U251 CNS
UACC-257 melanoma = tested on: UACC-257 melanoma
UACC-62 melanoma = tested on: UACC-62 melanoma
UO-31 renal = tested on: UO-31 renal
HS 578T breast = tested on: HS 578T breast
IGROV1 ovarian = tested on: IGROV1 ovarian
MALME-3M melanoma = tested on: MALME-3M melanoma
NCI-H522 lung = tested on: NCI-H522 lung
SK-MEL-2 melanoma = tested on: SK-MEL-2 melanoma
SR leukemia = tested on: SR leukemia

Structure (SMILES): O=C(N/C(=C\NC1=NCCS1)C(=O)N1CSC[C@@H]1C(=O)O)c1ccccc1
- TGI (786-0 renal): > 100 µM
- TGI (A498 renal): > 100 µM
- TGI (A549 NSCLC): > 100 µM
- TGI (ACHN renal): > 100 µM
- TGI (CAKI-1 renal): > 100 µM
- TGI (CCRF-CEM leukemia): > 100 µM
- TGI (COLO 205 colon): > 100 µM
- TGI (DU-145 prostate): > 100 µM
- TGI (EKVX NSCLC): > 100 µM
- TGI (HCC-2998 colon): > 100 µM
- TGI (HCT-116 colon): > 100 µM
- TGI (HCT-15 colon): > 100 µM
- TGI (HL-60(TB) leukemia): > 100 µM
- TGI (HOP-62 NSCLC): > 100 µM
- TGI (HOP-92 NSCLC): > 100 µM
- TGI (HT29 colon): > 100 µM
- TGI (K-562 leukemia): > 100 µM
- TGI (KM12 colon): > 100 µM
- TGI (LOX IMVI melanoma): > 100 µM
- TGI (M14 melanoma): > 100 µM
- TGI (MCF7 breast): > 100 µM
- TGI (MDA-MB-231 breast): > 100 µM
- TGI (MDA-MB-435): > 100 µM
- TGI (MDA-N): > 100 µM
- TGI (MOLT-4 leukemia): > 100 µM
- TGI (NCI-H226 lung): > 100 µM
- TGI (NCI-H23 lung): > 100 µM
- TGI (NCI-H460 lung): > 100 µM
- TGI (NCI/ADR-RES ovarian): > 100 µM
- TGI (OVCAR-3 ovarian): > 100 µM
- TGI (OVCAR-4 ovarian): > 100 µM
- TGI (OVCAR-5 ovarian): > 100 µM
- TGI (OVCAR-8 ovarian): > 100 µM
- TGI (PC-3 prostate): > 100 µM
- TGI (RPMI-8226 leukemia): > 100 µM
- TGI (RXF 393 renal): > 100 µM
- TGI (SF-268 CNS): > 100 µM
- TGI (SF-295 CNS): > 100 µM
- TGI (SF-539 CNS): > 100 µM
- TGI (SK-MEL-28 melanoma): > 100 µM
- TGI (SK-MEL-5 melanoma): > 100 µM
- TGI (SK-OV-3 ovarian): > 100 µM
- TGI (SN12C renal): > 100 µM
- TGI (SNB-19 CNS): > 100 µM
- TGI (SNB-75 CNS): > 100 µM
- TGI (SW-620 colon): > 100 µM
- TGI (T-47D breast): > 100 µM
- TGI (TK-10 renal): > 100 µM
- TGI (U251 CNS): > 100 µM
- TGI (UACC-257 melanoma): > 100 µM
- TGI (UACC-62 melanoma): > 100 µM
- TGI (UO-31 renal): > 100 µM

Structure (SMILES): COc1c(C(=O)/C(=N/Nc2cccc(Cl)c2)C(C)=O)c(O)c(OC)c2occc12
- TGI (786-0 renal): > 100 µM
- TGI (A549 NSCLC): > 100 µM
- TGI (ACHN renal): > 100 µM
- TGI (CAKI-1 renal): > 100 µM
- TGI (CCRF-CEM leukemia): > 100 µM
- TGI (COLO 205 colon): > 100 µM
- TGI (DU-145 prostate): > 100 µM
- TGI (EKVX NSCLC): > 100 µM
- TGI (HCC-2998 colon): > 100 µM
- TGI (HCT-116 colon): > 100 µM
- TGI (HCT-15 colon): > 100 µM
- TGI (HL-60(TB) leukemia): > 100 µM
- TGI (HOP-62 NSCLC): > 100 µM
- TGI (HOP-92 NSCLC): > 100 µM
- TGI (HS 578T breast): > 100 µM
- TGI (HT29 colon): > 100 µM
- TGI (IGROV1 ovarian): > 100 µM
- TGI (K-562 leukemia): > 100 µM
- TGI (KM12 colon): > 100 µM
- TGI (LOX IMVI melanoma): > 100 µM
- TGI (M14 melanoma): > 100 µM
- TGI (MALME-3M melanoma): > 100 µM
- TGI (MCF7 breast): > 100 µM
- TGI (MDA-MB-231 breast): > 100 µM
- TGI (MDA-MB-435): > 100 µM
- TGI (MDA-N): > 100 µM
- TGI (MOLT-4 leukemia): > 100 µM
- TGI (NCI-H226 lung): > 100 µM
- TGI (NCI-H23 lung): > 100 µM
- TGI (NCI-H460 lung): > 100 µM
- TGI (NCI-H522 lung): > 100 µM
- TGI (NCI/ADR-RES ovarian): > 100 µM
- TGI (OVCAR-3 ovarian): > 100 µM
- TGI (OVCAR-5 ovarian): > 100 µM
- TGI (OVCAR-8 ovarian): > 100 µM
- TGI (PC-3 prostate): > 100 µM
- TGI (RPMI-8226 leukemia): > 100 µM
- TGI (RXF 393 renal): > 100 µM
- TGI (SF-268 CNS): > 100 µM
- TGI (SF-295 CNS): > 100 µM
- TGI (SF-539 CNS): > 100 µM
- TGI (SK-MEL-2 melanoma): > 100 µM
- TGI (SK-MEL-28 melanoma): > 100 µM
- TGI (SK-MEL-5 melanoma): > 100 µM
- TGI (SK-OV-3 ovarian): > 100 µM
- TGI (SN12C renal): > 100 µM
- TGI (SNB-19 CNS): > 100 µM
- TGI (SNB-75 CNS): > 100 µM
- TGI (SR leukemia): > 100 µM
- TGI (SW-620 colon): > 100 µM
- TGI (T-47D breast): 88.9 µM
- TGI (TK-10 renal): > 100 µM
- TGI (U251 CNS): > 100 µM
- TGI (UACC-257 melanoma): > 100 µM
- TGI (UACC-62 melanoma): > 100 µM
- TGI (UO-31 renal): > 100 µM
